Measurements reported in patent US20100048950A1 (BOEHRINGER INGELHEIM INTERNATIONAL GMBH, priority 2007, published 2010).

Target: T1, human glucocorticoid receptor (GR) complex (Homo sapiens, UniProt P04150)
T1 construct: made in house; host or cells: insect expression system (baculovirus lysate)
T1 sequence (P04150 1-777): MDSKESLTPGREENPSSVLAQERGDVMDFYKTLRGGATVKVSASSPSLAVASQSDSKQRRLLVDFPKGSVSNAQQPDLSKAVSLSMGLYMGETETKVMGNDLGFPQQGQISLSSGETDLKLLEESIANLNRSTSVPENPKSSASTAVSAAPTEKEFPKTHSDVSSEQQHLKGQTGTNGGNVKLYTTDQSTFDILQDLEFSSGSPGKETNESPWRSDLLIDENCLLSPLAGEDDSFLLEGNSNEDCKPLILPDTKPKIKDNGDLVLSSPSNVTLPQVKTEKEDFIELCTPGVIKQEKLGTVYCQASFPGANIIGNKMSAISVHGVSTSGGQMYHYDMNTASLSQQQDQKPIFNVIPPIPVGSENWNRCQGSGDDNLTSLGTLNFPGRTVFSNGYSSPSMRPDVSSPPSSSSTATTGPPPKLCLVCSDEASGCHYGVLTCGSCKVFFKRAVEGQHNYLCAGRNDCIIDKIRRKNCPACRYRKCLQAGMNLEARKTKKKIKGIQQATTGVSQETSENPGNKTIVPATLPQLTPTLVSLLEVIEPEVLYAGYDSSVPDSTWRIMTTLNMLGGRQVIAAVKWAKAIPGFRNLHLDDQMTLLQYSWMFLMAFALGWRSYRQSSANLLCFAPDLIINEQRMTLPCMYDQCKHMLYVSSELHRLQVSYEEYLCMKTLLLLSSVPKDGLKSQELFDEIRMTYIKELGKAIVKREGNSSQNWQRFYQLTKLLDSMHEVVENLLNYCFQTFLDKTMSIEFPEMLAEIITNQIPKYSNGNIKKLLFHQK
Assay: Glucocorticoid receptor competitive binding assay (fluorescence polarization)
Conditions: competition with TAMRA-labeled dexamethasone, read-out: potent activity (IC50) in the GR binding assay
Procedure, shortened: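 Human GR complex in baculovirus insect-cell lysate (1:170) competed against 15 nM TAMRA-dexamethasone stock for 1 h at room temperature. Buffer: TES/KCl/molybdate/EDTA/CHAPS/glycerol/DTT, pH 7.4, 1% DMSO final. FP read at 550/580 nm; IC50 from 4-parameter logistic fit.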

SMILES | IC50 [nM]
Cc1cc(C)c(S(=O)(=O)NC(CNc2c(F)cccc2F)C(F)(F)F)c(C)c1 (centres unmarked) [N-{1-[(2,6-Difluorophenylamino)methyl]-2,2,2-trifluoroethyl}-2,4,6-trimethylbenzenesulfonamide] | ≤ 100
Cc1cc(C)c(S(=O)(=O)NC(COc2ccc(C)c(Cl)c2)C(F)(F)F)c(C)c1 (centres unmarked) [N-[1-(3-Chloro-4-methylphenoxymethyl)-2,2,2-trifluoroethyl]-2,4,6-trimethylbenzenesulfonamide] | ≤ 100
CCOC(=O)c1ccc(OCC(NS(=O)(=O)c2c(C)cc(C)cc2C)C(F)(F)F)c(OC)c1 (centres unmarked) [3-Methoxy-4-[3,3,3-trifluoro-2-(2,4,6-trimethylbenzenesulfonylamino)propoxy]benzoic acid ethyl ester] | ≤ 100
Cc1cc(C)c(S(=O)(=O)NC(COc2cccc(F)c2)C(F)(F)F)c(C)c1 (centres unmarked) [2,4,6-Trimethyl-N-[2,2,2-trifluoro-1-(3-fluorophenoxymethyl)ethyl]benzenesulfonamide] | ≤ 100
Cc1cc(C)c(S(=O)(=O)NC(CNc2ccc(C#N)c(Cl)c2)C(F)(F)F)c(C)c1 (centres unmarked) [N-{1-[(3-Chloro-4-cyanophenylamino)methyl]-2,2,2-trifluoroethyl}-2,4,6-trimethylbenzenesulfonamide] | ≤ 100
CCCN(CC(NS(=O)(=O)c1c(C)cc(C)cc1C)C(F)(F)F)c1ccccc1 (centres unmarked) | ≤ 100
COc1ccc(NCC(NS(=O)(=O)c2c(C)cc(C)cc2C)C(F)(F)F)c(C)c1 (centres unmarked) [2,4,6-Trimethyl-N-{2,2,2-trifluoro-1-[(4-methoxy-2-methylphenylamino)methyl]ethyl}benzenesulfonamide] | ≤ 100
COc1cccc(SCC(NS(=O)(=O)c2c(C)cc(C)cc2C)C(F)(F)F)c1 (centres unmarked) [2,4,6-Trimethyl-N-[2,2,2-trifluoro-1-(3-methoxyphenylsulfanylmethyl)ethyl]benzenesulfonamide] | ≤ 100
Cc1cc(C)c(S(=O)(=O)NC(COc2cccc(OC(F)(F)F)c2)C(F)(F)F)c(C)c1 (centres unmarked) [2,4,6-Trimethyl-N-[2,2,2-trifluoro-1-(3-trifluoromethoxyphenoxymethyl)ethyl]benzenesulfonamide] | ≤ 100
Cc1ccc(NCC(NS(=O)(=O)c2c(C)cc(C)cc2C)C(F)(F)F)c(C)c1 (centres unmarked) [N-{1-[(2,4-Dimethylphenylamino)methyl]-2,2,2-trifluoroethyl}-2,4,6-trimethylbenzenesulfonamide] | ≤ 100
Cc1cccc(OCC(NS(=O)(=O)c2c(C)cc(C)cc2C)C(F)(F)F)c1 (centres unmarked) [2,4,6-Trimethyl-N-(2,2,2-trifluoro-1-m-tolyloxymethylethyl)benzenesulfonamide] | ≤ 100
Cc1cc(C)c(S(=O)(=O)NC(CSc2ccccc2C(C)(C)C)C(F)(F)F)c(C)c1 (centres unmarked) [N-[1-(2-tert-Butylphenylsulfanylmethyl)-2,2,2-trifluoroethyl]-2,4,6-trimethylbenzenesulfonamide] | ≤ 100
Cc1cc(C)c(S(=O)(=O)NC(CSc2c(Cl)cccc2Cl)C(F)(F)F)c(C)c1 (centres unmarked) [N-[1-(2,6-Dichlorophenylsulfanylmethyl)-2,2,2-trifluoroethyl]-2,4,6-trimethylbenzenesulfonamide] | ≤ 100
Cc1cc(C)c(S(=O)(=O)NC(CSc2cccc(Br)c2)C(F)(F)F)c(C)c1 (centres unmarked) [N-[1-(3-Bromophenylsulfanylmethyl)-2,2,2-trifluoroethyl]-2,4,6-trimethylbenzenesulfonamide] | ≤ 100
Cc1cc(C)c(S(=O)(=O)NC(COc2cccc(C#N)c2)C(F)(F)F)c(C)c1 (centres unmarked) [N-[1-(3-Cyanophenoxymethyl)-2,2,2-trifluoroethyl]-2,4,6-trimethylbenzenesulfonamide] | ≤ 100
Cc1cc(C)c(S(=O)(=O)NC(COc2cc(Cl)cc(Cl)c2)C(F)(F)F)c(C)c1 (centres unmarked) [N-[1-(3,5-Dichlorophenoxymethyl)-2,2,2-trifluoroethyl]-2,4,6-trimethylbenzenesulfonamide] | ≤ 100

SMILES | IC50 [nM]
Cc1cc(C)c(S(=O)(=O)NC(CSc2c(C)cccc2Cl)C(F)(F)F)c(C)c1 (centres unmarked) [N-[1-(2-Chloro-6-methylphenylsulfanylmethyl)-2,2,2-trifluoroethyl]-2,4,6-trimethylbenzenesulfonamide] | ≤ 100
Cc1cc(C)c(S(=O)(=O)NC(CSc2ccc(F)cc2)C(F)(F)F)c(C)c1 (centres unmarked) [2,4,6-Trimethyl-N-[2,2,2-trifluoro-1-(4-fluorophenylsulfanylmethyl)ethyl]benzenesulfonamide] | ≤ 100
Cc1cc(C)c(S(=O)(=O)NC(CNc2ccc(C)cc2F)C(F)(F)F)c(C)c1 (centres unmarked) [2,4,6-Trimethyl-N-{2,2,2-trifluoro-1-[(2-fluoro-4-methylphenylamino)methyl]ethyl}benzenesulfonamide] | ≤ 100
Cc1cc(C)c(S(=O)(=O)NC(COc2ccc(F)cc2C)C(F)(F)F)c(C)c1 (centres unmarked) [2,4,6-Trimethyl-N-[2,2,2-trifluoro-1-(4-fluoro-2-methylphenoxymethyl)ethyl]benzenesulfonamide] | ≤ 100
Cc1cc(C)c(S(=O)(=O)NC(COc2cc(F)cc(C(F)(F)F)c2)C(F)(F)F)c(C)c1 (centres unmarked) [2,4,6-Trimethyl-N-[2,2,2-trifluoro-1-(3-fluoro-5-trifluoromethylphenoxymethyl)ethyl]benzenesulfonamide] | ≤ 100
Cc1cc(C)c(S(=O)(=O)NC(CNc2cccc(C(F)(F)F)c2)C(F)(F)F)c(C)c1 (centres unmarked) [2,4,6-Trimethyl-N-{2,2,2-trifluoro-1-[(3-trifluoromethylphenylamino)methyl]ethyl}benzenesulfonamide] | ≤ 100
Cc1cc(C)c(S(=O)(=O)NC(CNc2cccc(Cl)c2)C(F)(F)F)c(C)c1 (centres unmarked) [N-{1-[(3-Chlorophenylamino)methyl]-2,2,2-trifluoroethyl}-2,4,6-trimethylbenzenesulfonamide] | ≤ 100
Cc1cc(C)c(S(=O)(=O)NC(CSc2ccccc2C(C)C)C(F)(F)F)c(C)c1 (centres unmarked) [2,4,6-Trimethyl-N-[2,2,2-trifluoro-1-(2-isopropylphenylsulfanylmethyl)ethyl]benzenesulfonamide] | ≤ 100
Cc1cc(C)c(S(=O)(=O)NC(CNc2ccccc2)C(F)(F)F)c(C)c1 (centres unmarked) [2,4,6-Trimethyl-N-(2,2,2-trifluoro-1-phenylaminomethylethyl)benzenesulfonamide] | ≤ 100
Cc1cc(C)c(S(=O)(=O)NC(CNc2cccc3c2CCCC3)C(F)(F)F)c(C)c1 (centres unmarked) [2,4,6-Trimethyl-N-{2,2,2-trifluoro-1-[(5,6,7,8-tetrahydronaphthalen-1-ylamino)methyl]ethyl}benzenesulfonamide] | ≤ 100
CC[C@@H](CNc1cccc2ccccc12)NS(=O)(=O)c1c(C)cc(C)cc1C [2,4,6-Trimethyl-N—[(S)-1-(naphthalen-1-ylaminomethyl)propyl]benzenesulfonamide] | ≤ 100
Cc1ccc(NCC(NS(=O)(=O)c2c(C)cc(C)cc2C)C(F)(F)F)cc1 (centres unmarked) [2,4,6-Trimethyl-N-[2,2,2-trifluoro-1-(p-tolylaminomethyl)ethyl]benzenesulfonamide] | ≤ 100
Cc1cc(C)c(S(=O)(=O)NC(COc2cc(F)ccc2Br)C(F)(F)F)c(C)c1 (centres unmarked) [N-[1-(2-Bromo-5-fluorophenoxymethyl)-2,2,2-trifluoroethyl]-2,4,6-trimethylbenzenesulfonamide] | ≤ 100
Cc1cc(C)c(S(=O)(=O)NC(CNc2ccc(F)cc2F)C(F)(F)F)c(C)c1 (centres unmarked) [N-{1-[(2,4-Difluorophenylamino)methyl]-2,2,2-trifluoroethyl}-2,4,6-trimethylbenzenesulfonamide] | ≤ 100
COC(=O)c1cccc(NCC(NS(=O)(=O)c2c(C)cc(C)cc2C)C(F)(F)F)c1 (centres unmarked) [3-[3,3,3-Trifluoro-2-(2,4,6-trimethylbenzenesulfonylamino)propylamino]benzoic acid methyl ester] | ≤ 100
Cc1cc(C)c(S(=O)(=O)NC(CNc2cccc(Br)c2)C(F)(F)F)c(C)c1 (centres unmarked) [N-{1-[(3-Bromophenylamino)methyl]-2,2,2-trifluoroethyl}-2,4,6-trimethylbenzenesulfonamide] | ≤ 100
